# In paper PMC10999543, “Identification of kinase modulators as host-directed therapeutics against intracellular methicillin-resistant Staphylococcus aureus” (Frontiers in Cellular and Infection Microbiology, 2024):
# Read-outs that look alike come from different tables or passages of the source.
# What was measured:
# intracellular MRSA = type: cell-based, Staphylococcus aureus; conditions: for %GFP+ rep 1 / z-scoreMRSA+ rep 1: replicate 1; for %GFP+ rep 2 / z-scoreMRSA+ rep 2: replicate 2; for %GFP+ rep 3 / z-scoreMRSA+ rep 3: replicate 3; for z-scoreMRSA+ mean: mean of 3 replicates; for %GFP+ rep 1: test concentration or dose not given here; for %GFP+ rep 2: test concentration or dose not given here; for %GFP+ rep 3: test concentration or dose not given here; for effect: test concentration or dose not given here; for z-scoreMRSA+ mean: test concentration or dose not given here; for z-scoreMRSA+ rep 1: test concentration or dose not given here; for z-scoreMRSA+ rep 2: test concentration or dose not given here; for z-scoreMRSA+ rep 3: test concentration or dose not given here
# In short: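 Values are z-scores: GFP-positive HeLa percentage and event count per well against plate statistics, minus the mean DMSO z-score. Wells deviating two-fold from controls were left out of plate means. Infection was at a mean MOI of 6.8, with an overnight compound exposure.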
# HeLa cells = experiment: Compound screen by flow cytometry: HeLa cell count as surrogate readout of cell viability (z-scoreHeLa); type: cell-based, human; conditions: for cell count rep 1 / z-scoreHeLa rep 1: replicate 1; for cell count rep 2 / z-scoreHeLa rep 2: replicate 2; for cell count rep 3 / z-scoreHeLa rep 3: replicate 3; for z-scoreHeLa mean: mean of 3 replicates; for all read-outs here: test concentration or dose not given here
# In short: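 The viability surrogate was the count of fixed HeLa cells by flow cytometry, converted to z-scores against DMSO controls with values deviating two-fold excluded. Before counting, cells had been infected with MRSA for 1 h and cleared of extracellular bacteria with gentamicin. They were then exposed overnight to kinase inhibitors in triplicate.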
# [1] = PKIS compound screen raw data, MRSA-infected HeLa cells
# [2] = PKIS compound screen, MRSA-infected HeLa cells
# [3] = PKIS compound screen, Yes/No call (effect without cell death)
# [4] = PKIS compound screen, Yes/No call on z-scoreMRSA+
# [5] = PKIS compound screen raw data, HeLa cell count
# [6] = PKIS compound screen, HeLa cell count
# [7] = PKIS compound screen, Yes/No call on z-scoreHeLa
# [8] = PKIS compound screen, Yes/No call
# [9] = PKIS compounds raw data, MRSA-infected HeLa cells
# [10] = PKIS compounds raw data, HeLa cell count
# [11] = Yes/No: effect without cell death
# [12] = compound screen, MRSA-infected HeLa cells
# [13] = compound screen, HeLa cell count
Compound,%GFP+ rep 1 (intracellular MRSA; [1]),%GFP+ rep 2 (intracellular MRSA; [1]),%GFP+ rep 3 (intracellular MRSA; [1]),z-scoreMRSA+ mean (intracellular MRSA; [2]),z-scoreMRSA+ rep 1 (intracellular MRSA; [2]),z-scoreMRSA+ rep 2 (intracellular MRSA; [2]),z-scoreMRSA+ rep 3 (intracellular MRSA; [2]),hit (intracellular MRSA; [3]),effect (intracellular MRSA; [4]),cell count rep 1 (HeLa cells; [5]),cell count rep 2 (HeLa cells; [5]),cell count rep 3 (HeLa cells; [5]),z-scoreHeLa mean (HeLa cells; [6]),z-scoreHeLa rep 1 (HeLa cells; [6]),z-scoreHeLa rep 2 (HeLa cells; [6]),z-scoreHeLa rep 3 (HeLa cells; [6]),cell death (HeLa cells; [7]),effect (intracellular MRSA; Yes/No call from z-scoreMRSA+),hit (intracellular MRSA; [11]),z-scoreMRSA+ mean (intracellular MRSA; [12]),other results
Cc1cc(-c2ccc3c(c2)CC[C@@H](N[C@@H](C)c2ccccc2)C3)cnc1N [GW412617A],20.0%,21.4%,20.6%,0.60,0.68,0.86,0.25,No,No,42421,41709,47670,1.94,3.38,1.29,1.14,No,,,,
Cc1ccc(O)cc1Nc1ccnc2cc(-c3ccc(CN4CCCCC4)o3)ccc12 [GW557777X],13.1%,14.2%,14.8%,-1.44,-1.51,-1.30,-1.52,No,No,30186,37597,49690,1.17,1.53,0.52,1.46,No,,,,
COC(=O)c1cccc(NC(=O)NC2CCN(c3ccnc(Nc4ccc(OC)cc4)n3)C2)c1 (stereo not drawn) [GSK1379746A],19.0%,17.4%,21.2%,-0.17,0.06,-0.55,-0.01,No,No,24857,18367,14326,-0.99,-0.90,-1.18,-0.90,No,,,,effect (intracellular MRSA; [8]): No; z-scoreMRSA+ mean (intracellular MRSA; PKIS compound screen): -0.13; z-scoreMRSA+ rep 1 (intracellular MRSA; PKIS compound screen): -0.05; z-scoreMRSA+ rep 2 (intracellular MRSA; PKIS compound screen): -0.0265; z-scoreMRSA+ rep 3 (intracellular MRSA; PKIS compound screen): -0.31; %GFP+ rep 1 (intracellular MRSA; [9]): 26.8%; %GFP+ rep 2 (intracellular MRSA; [9]): 25.9%; %GFP+ rep 3 (intracellular MRSA; [9]): 25.6%; cell death (HeLa cells; [8]): No; z-scoreHeLa mean (HeLa cells; PKIS compound screen): -0.86; z-scoreHeLa rep 1 (HeLa cells; PKIS compound screen): -1.12; z-scoreHeLa rep 2 (HeLa cells; PKIS compound screen): -1.01; z-scoreHeLa rep 3 (HeLa cells; PKIS compound screen): -0.44; cell count rep 1 (HeLa cells; [10]): 4181; cell count rep 2 (HeLa cells; [10]): 4486; cell count rep 3 (HeLa cells; [10]): 4898
Cc1c2ccc(N(C)c3ccnc(Nc4cccc(S(N)(=O)=O)c4)n3)cc2nn1Cc1ccccc1 [GW787226A],21.6%,20.6%,18.5%,,,,,,,1356,1496,1271,,,,,,No,No,-0.82,z-scoreMRSA+ rep 1 (intracellular MRSA; [12]): -0.86; z-scoreMRSA+ rep 2 (intracellular MRSA; [12]): -0.49; z-scoreMRSA+ rep 3 (intracellular MRSA; [12]): -1.11; cell death (HeLa cells; Yes/No call from z-scoreHeLa): No; z-scoreHeLa mean (HeLa cells; [13]): -2.28; z-scoreHeLa rep 1 (HeLa cells; [13]): -2.16; z-scoreHeLa rep 2 (HeLa cells; [13]): -2.16; z-scoreHeLa rep 3 (HeLa cells; [13]): -2.51
Cc1c2ccc(N(C)c3ccnc(Nc4cccc(S(N)(=O)=O)c4)n3)cc2nn1C [GW771127A],14.2%,13.8%,15.3%,-1.32,-1.16,-1.42,-1.37,No,No,10020,29599,33795,-1.19,-1.53,-0.97,-1.07,No,,,,
O=C(Nc1n[nH]c2cc(-c3cccs3)ccc12)C1CC1 [SB-731284],22.6%,23.6%,20.0%,,,,,,,2848,2463,2761,,,,,,No,No,-0.35,z-scoreMRSA+ rep 1 (intracellular MRSA; [12]): -0.62; z-scoreMRSA+ rep 2 (intracellular MRSA; [12]): 0.24; z-scoreMRSA+ rep 3 (intracellular MRSA; [12]): -0.66; cell death (HeLa cells; Yes/No call from z-scoreHeLa): No; z-scoreHeLa mean (HeLa cells; [13]): -1.36; z-scoreHeLa rep 1 (HeLa cells; [13]): -1.08; z-scoreHeLa rep 2 (HeLa cells; [13]): -1.41; z-scoreHeLa rep 3 (HeLa cells; [13]): -1.57
Cc1n[nH]c2ccc(-c3cc(OC[C@@H](N)Cc4ccccc4)cnc3-c3ccoc3)cc12 [GSK507358A],,,,,,,,No,,,,,,,,,,,,,effect (intracellular MRSA; [8]): No; z-scoreMRSA+ mean (intracellular MRSA; PKIS compound screen): -1.58; z-scoreMRSA+ rep 1 (intracellular MRSA; PKIS compound screen): -1.88; z-scoreMRSA+ rep 2 (intracellular MRSA; PKIS compound screen): -1.31; z-scoreMRSA+ rep 3 (intracellular MRSA; PKIS compound screen): -1.55; %GFP+ rep 1 (intracellular MRSA; [9]): 17.4%; %GFP+ rep 2 (intracellular MRSA; [9]): 19.2%; %GFP+ rep 3 (intracellular MRSA; [9]): 18.9%; cell death (HeLa cells; [8]): No; z-scoreHeLa mean (HeLa cells; PKIS compound screen): 1.21; z-scoreHeLa rep 1 (HeLa cells; PKIS compound screen): 1.04; z-scoreHeLa rep 2 (HeLa cells; PKIS compound screen): 1.55; z-scoreHeLa rep 3 (HeLa cells; PKIS compound screen): 1.04; cell count rep 1 (HeLa cells; [10]): 7770; cell count rep 2 (HeLa cells; [10]): 8336; cell count rep 3 (HeLa cells; [10]): 7240
Cn1cc(-c2cnc(N)c3c(-c4ccc5c(c4)CCN5C(=O)Cc4ccccc4)csc23)cn1 [GSK2593074A],,,,,,,,,,,,,,,,,,No,No,2.45,%GFP+ rep 1 (intracellular MRSA; [9]): 24.8%; %GFP+ rep 2 (intracellular MRSA; [9]): 21.4%; %GFP+ rep 3 (intracellular MRSA; [9]): 19.2%; z-scoreMRSA+ rep 1 (intracellular MRSA; [12]): 3.72; z-scoreMRSA+ rep 2 (intracellular MRSA; [12]): 2.64; z-scoreMRSA+ rep 3 (intracellular MRSA; [12]): 0.98; cell count rep 1 (HeLa cells; [10]): 857; cell count rep 2 (HeLa cells; [10]): 369; cell count rep 3 (HeLa cells; [10]): 1620; cell death (HeLa cells; Yes/No call from z-scoreHeLa): Yes; z-scoreHeLa mean (HeLa cells; [13]): -3.02; z-scoreHeLa rep 1 (HeLa cells; [13]): -3.54; z-scoreHeLa rep 2 (HeLa cells; [13]): -2.95; z-scoreHeLa rep 3 (HeLa cells; [13]): -2.56
Cc1ccccc1CC(=O)N1CCc2cc(-c3cn(C)c4ncnc(N)c34)ccc21 [GSK2603346A],20.6%,20.8%,20.5%,0.59,0.87,0.68,0.22,No,No,19984,27840,38532,-0.54,-0.02,-1.30,-0.32,No,,,,
CN(C)CCOc1ccc(-c2cc(-c3ccc(Cl)c(O)c3)c(-c3ccncc3)[nH]2)cc1.Cl.Cl [SB-684387-B],13.0%,10.9%,11.1%,,,,,,,7005,6368,7752,,,,,,Yes,Yes,-3.01,z-scoreMRSA+ rep 1 (intracellular MRSA; [12]): -2.86; z-scoreMRSA+ rep 2 (intracellular MRSA; [12]): -2.84; z-scoreMRSA+ rep 3 (intracellular MRSA; [12]): -3.32; cell death (HeLa cells; Yes/No call from z-scoreHeLa): No; z-scoreHeLa mean (HeLa cells; [13]): 1.70; z-scoreHeLa rep 1 (HeLa cells; [13]): 1.91; z-scoreHeLa rep 2 (HeLa cells; [13]): 1.59; z-scoreHeLa rep 3 (HeLa cells; [13]): 1.59
